Experimental data taken from PMC6192554, “In vitro toxicity and efficacy of verdinexor, an exportin 1 inhibitor, on opportunistic viruses affecting immunocompromised individuals” (PLoS ONE, 2018).

Experiment: Serum protein binding
Type: in vitro ADME
Details: human, humans
Experimental: Serum concentrations with Verdinexor have been previously established in in vivo models of influenza in both mice and ferrets. In mice receiving 10mg/kg and ferrets receiving 5mg/kg, max plasma concentration of verdinexor was approximately 1200 (ng/mL) however, the half life in mice was extended (6 hours) as compared to that of ferrets (2 hours). Serum protein binding of verdinexor in humans is 98.4%. […] A Phase 1, Randomized, Double-Blind, Placebo-Controlled, Sequential, Dose-Escalating Trial to Evaluate the Safety and Tolerability of Oral Verdinexor (KPT-335) in Healthy Adult Subjects was conducted in Nucleus Network, Melbourne, Victoria, Australia [ClinicalTrials.gov: NCT02431364]. No study results are currently posted for this study. Furthermore, a clinical study was submitted to the USA FDA on IND#122718. This phase 1a, Randomized, Double-Blind, Placebo-Controlled, Sequential, Dose-Escalating Trial of Single and Multi-Dose oral verdinexor (KPT-335) to Evaluate the Safety and Tolerability in Healthy Elderly Volunteers is yet to be initiated and recruit subjects.

Compound: O=C(C=Cn1cnc(-c2cc(C(F)(F)F)cc(C(F)(F)F)c2)n1)NNc1ccccn1 (stereo in doubt) [verdinexor, (E)-3-[3-[3,5-bis(trifluoromethyl)phenyl]-1,2,4-triazol-1-yl]-N'-pyridin-2-ylprop-2-enehydrazide]
- fraction unbound: 0.016
